For the data set, the system named is CCRIS mutagenicity, Ames/micronucleus/aberration tests. In words: CCRIS mutagenicity studies. The settings on record: Method: STANDARD PLATE.
[1] abbreviates: Test System: AMES SALMONELLA TYPHIMURIUM, Strain/Indicator: TA98, Metabolic Activation: RAT, LIVER, S-9, AROCLOR 1254.
[2] abbreviates: Test System: AMES SALMONELLA TYPHIMURIUM, Strain/Indicator: TA100, Metabolic Activation: NONE.

Structures are written as SMILES. Calls of active or inactive are those of the source. How the calls were made is not given here.

On to `COc1cc(-c2ccc(N=C=O)c(OC)c2)ccc1N=C=O`, for which the mutagenic call reads like this: (Test System: AMES SALMONELLA TYPHIMURIUM, Strain/Indicator: TA98, Metabolic Activation: HAMSTER, LIVER, S-9, AROCLOR 1254) “active; positive”; (Test System: AMES SALMONELLA TYPHIMURIUM, Strain/Indicator: TA98, Metabolic Activation: HAMSTER, LIVER, S-9) “active; positive”; (Test System: AMES SALMONELLA TYPHIMURIUM, Strain/Indicator: TA98, Metabolic Activation: MOUSE, LIVER, S-9, AROCLOR 1254) “active; positive”; (Test System: AMES SALMONELLA TYPHIMURIUM, Strain/Indicator: TA98, Metabolic Activation: MOUSE, LIVER, S-9) “active; positive”; under setting [1], “active; positive”; (Test System: AMES SALMONELLA TYPHIMURIUM, Strain/Indicator: TA98, Metabolic Activation: RAT, LIVER, S-9) “active; positive”. Besides, the mutagenic call (Test System: AMES SALMONELLA TYPHIMURIUM, Strain/Indicator: TA100, Metabolic Activation: HAMSTER, LIVER, S-9, AROCLOR 1254) was “inactive; negative”; the mutagenic call (Test System: AMES SALMONELLA TYPHIMURIUM, Strain/Indicator: TA100, Metabolic Activation: HAMSTER, LIVER, S-9) was “inactive; negative”; the mutagenic call (Test System: AMES SALMONELLA TYPHIMURIUM, Strain/Indicator: TA100, Metabolic Activation: MOUSE, LIVER, S-9, AROCLOR 1254) was “inactive; negative”; the mutagenic call (Test System: AMES SALMONELLA TYPHIMURIUM, Strain/Indicator: TA100, Metabolic Activation: MOUSE, LIVER, S-9) is “inactive; negative”; the mutagenic call under setting [2] is “inactive; negative”; the mutagenic call (Test System: AMES SALMONELLA TYPHIMURIUM, Strain/Indicator: TA1535, Metabolic Activation: HAMSTER, LIVER, S-9, AROCLOR 1254) was “inactive; negative”. Further, the mutagenic call was “inactive; negative” (Test System: AMES SALMONELLA TYPHIMURIUM, Strain/Indicator: TA1535, Metabolic Activation: HAMSTER, LIVER, S-9); “inactive; negative” (Test System: AMES SALMONELLA TYPHIMURIUM, Strain/Indicator: TA1535, Metabolic Activation: MOUSE, LIVER, S-9, AROCLOR 1254); “inactive; negative” (Test System: AMES SALMONELLA TYPHIMURIUM, Strain/Indicator: TA1535, Metabolic Activation: MOUSE, LIVER, S-9); “inactive; negative” (Test System: AMES SALMONELLA TYPHIMURIUM, Strain/Indicator: TA1535, Metabolic Activation: NONE); “inactive; negative” (Test System: AMES SALMONELLA TYPHIMURIUM, Strain/Indicator: TA1535, Metabolic Activation: RAT, LIVER, S-9, AROCLOR 1254); “inactive; negative” (Test System: AMES SALMONELLA TYPHIMURIUM, Strain/Indicator: TA1535, Metabolic Activation: RAT, LIVER, S-9). Besides, the mutagenic call was “inactive; negative” (Test System: AMES SALMONELLA TYPHIMURIUM, Strain/Indicator: TA1537, Metabolic Activation: HAMSTER, LIVER, S-9, AROCLOR 1254); “inactive; negative” (Test System: AMES SALMONELLA TYPHIMURIUM, Strain/Indicator: TA1537, Metabolic Activation: HAMSTER, LIVER, S-9); “inactive; negative” (Test System: AMES SALMONELLA TYPHIMURIUM, Strain/Indicator: TA1537, Metabolic Activation: MOUSE, LIVER, S-9, AROCLOR 1254); “inactive; negative” (Test System: AMES SALMONELLA TYPHIMURIUM, Strain/Indicator: TA1537, Metabolic Activation: MOUSE, LIVER, S-9); “inactive; negative” (Test System: AMES SALMONELLA TYPHIMURIUM, Strain/Indicator: TA1537, Metabolic Activation: NONE); “inactive; negative” (Test System: AMES SALMONELLA TYPHIMURIUM, Strain/Indicator: TA1537, Metabolic Activation: RAT, LIVER, S-9, AROCLOR 1254). Also, the mutagenic call by setting is: (Test System: AMES SALMONELLA TYPHIMURIUM, Strain/Indicator: TA1537, Metabolic Activation: RAT, LIVER, S-9) “inactive; negative”; (Test System: AMES SALMONELLA TYPHIMURIUM, Strain/Indicator: TA1538, Metabolic Activation: HAMSTER, LIVER, S-9, AROCLOR 1254) “active; positive”; (Test System: AMES SALMONELLA TYPHIMURIUM, Strain/Indicator: TA1538, Metabolic Activation: HAMSTER, LIVER, S-9) “active; positive”; (Test System: AMES SALMONELLA TYPHIMURIUM, Strain/Indicator: TA1538, Metabolic Activation: MOUSE, LIVER, S-9, AROCLOR 1254) “active; positive”; (Test System: AMES SALMONELLA TYPHIMURIUM, Strain/Indicator: TA1538, Metabolic Activation: MOUSE, LIVER, S-9) “active; positive”; (Test System: AMES SALMONELLA TYPHIMURIUM, Strain/Indicator: TA1538, Metabolic Activation: RAT, LIVER, S-9, AROCLOR 1254) “active; positive”. Moreover, the mutagenic call was “active; positive” (Test System: AMES SALMONELLA TYPHIMURIUM, Strain/Indicator: TA1538, Metabolic Activation: RAT, LIVER, S-9); “inactive; negative” (Test System: E. COLI, Strain/Indicator: WP2 UVRA, Metabolic Activation: HAMSTER, LIVER, S-9, AROCLOR 1254); “inactive; negative” (Test System: E. COLI, Strain/Indicator: WP2 UVRA, Metabolic Activation: HAMSTER, LIVER, S-9); “inactive; negative” (Test System: E. COLI, Strain/Indicator: WP2 UVRA, Metabolic Activation: MOUSE, LIVER, S-9, AROCLOR 1254); “inactive; negative” (Test System: E. COLI, Strain/Indicator: WP2 UVRA, Metabolic Activation: MOUSE, LIVER, S-9); “inactive; negative” (Test System: E. COLI, Strain/Indicator: WP2 UVRA, Metabolic Activation: NONE). In addition, the mutagenic call by setting is: (Test System: E. COLI, Strain/Indicator: WP2 UVRA, Metabolic Activation: RAT, LIVER, S-9, AROCLOR 1254) “inactive; negative”; (Test System: E. COLI, Strain/Indicator: WP2 UVRA, Metabolic Activation: RAT, LIVER, S-9) “inactive; negative”.

On to `CCOP(=S)(OCC)SCn1c(=O)oc2cc(Cl)ccc21`, for which the mutagenic call runs as follows: (Test System: AMES SALMONELLA TYPHIMURIUM, Strain/Indicator: TA97A, Metabolic Activation: NONE) “inactive; negative”; (Test System: AMES SALMONELLA TYPHIMURIUM, Strain/Indicator: TA97A, Metabolic Activation: RAT, CECAL CELL FREE EXTRACT) “inactive; negative”; (Test System: AMES SALMONELLA TYPHIMURIUM, Strain/Indicator: TA97A, Metabolic Activation: RAT, LIVER, S-9, AROCLOR 1254) “inactive; negative”; (Test System: AMES SALMONELLA TYPHIMURIUM, Strain/Indicator: TA98, Metabolic Activation: NONE) “inactive; negative”; (Test System: AMES SALMONELLA TYPHIMURIUM, Strain/Indicator: TA98, Metabolic Activation: RAT, CECAL CELL FREE EXTRACT) “inactive; negative”; under setting [1], “inactive; negative”. Besides, the mutagenic call reads like this: under setting [2], “inactive; negative”; (Test System: AMES SALMONELLA TYPHIMURIUM, Strain/Indicator: TA100, Metabolic Activation: RAT, CECAL CELL FREE EXTRACT) “inactive; negative”; (Test System: AMES SALMONELLA TYPHIMURIUM, Strain/Indicator: TA100, Metabolic Activation: RAT, LIVER, S-9, AROCLOR 1254) “inactive; negative”.

Source of the values: PubChem BioAssay AID1259407 (Chemical Carcinogenesis Research Information System (CCRIS), 2018).
